Results: patent US20190117657A1, “METHOD OF INHIBITING HIGH FAT DIET-RELATED CONDITIONS” (South Australian Health and Medical Research Institute …, priority 2016, published 2019)
pIC50: −log10 of the molar value. “Also recorded” adds a separate entry of the source. Structures can show the parent of a compound that is named as a salt.

How the values were obtained:
[1] = target: MNK2 (Homo sapiens, UniProt Q9HBH9); conditions: cited from earlier work
[2] = target: MNK1 (Homo sapiens, UniProt Q9BUB5); conditions: cited from earlier work
Chain of MNK1 (Q9BUB5 whole entry, species assumed): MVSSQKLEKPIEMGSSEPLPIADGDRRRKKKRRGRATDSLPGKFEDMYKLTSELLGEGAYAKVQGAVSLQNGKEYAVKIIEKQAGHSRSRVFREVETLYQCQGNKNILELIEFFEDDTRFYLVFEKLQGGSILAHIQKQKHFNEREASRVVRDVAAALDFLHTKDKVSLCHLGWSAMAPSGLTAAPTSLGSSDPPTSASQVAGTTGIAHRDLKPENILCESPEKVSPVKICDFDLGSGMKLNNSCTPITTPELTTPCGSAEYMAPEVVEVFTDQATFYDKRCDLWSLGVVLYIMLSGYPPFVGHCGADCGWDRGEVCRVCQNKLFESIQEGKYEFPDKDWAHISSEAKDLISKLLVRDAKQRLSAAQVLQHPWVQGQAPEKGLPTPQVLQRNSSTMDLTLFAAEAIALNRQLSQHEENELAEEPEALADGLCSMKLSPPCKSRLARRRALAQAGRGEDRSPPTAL

[3] = tested on: other protein kinases; conditions: cited from earlier work
[4] = tested on: 3T3-L1 cells; test: Induction of adipogenic gene mRNAs in differentiating 3T3-L1 cells (RT-qPCR); format: cell-based; conditions: 20 μM, day 3 and 6 of differentiation
Method: Total RNA was isolated from tissues (frozen at the time of sampling) using Trizol reagent (Sigma-Aldrich) according to the manufacturer's instructions. RNA concentrations were determined by absorbance at 260 nm, while quality and integrity were evaluated via 260/230 and 260/280 ratios using a NanoDrop spectrophotometer (Thermo Fisher Scientific). RT-real time PCR amplification was carried out using the ImProm-II Reverse Transcription System (A3800; Promega, Madison, Wis., United States of America) with random primers following the manufacturer's protocol. Subsequently, real-time quantitative (q) PCR was performed using primer sequences described in Supplemental Table S1 of Moore CEJ et al., 2016, the content of which is hereby incorporated by reference in its entirety). The comparative CT method was used to measure the amplification of target mRNA levels compared with […] (B2M) mRNA. In FIG. 1A, the relative amount of each transcript was determined using the equation 2^−dCt, where dCt=(Ct target gene-Ct ref gene), and Ct=cycle threshold.
(§1) For induction of 3T3-L1 (fibroblast) cell differentiation, pre-adipocytes were grown to 2 days post-confluence in DMEM supplemented with 10% FBS (day 0) and the medium was changed to DMEM supplemented with 10% FBS, insulin (167 nM), dexamethasone (0.5 μM), isobutylmethylxanthine (IBMX) (0.5 mM) and rosiglitazone (2 μM). After 48 h, the medium was replaced with medium containing DMEM supplemented with 10% (v/v) FBS and 167 nM insulin. On day 4, after inducing differentiation, and thereafter, the cells were cultured in DMEM with 10% FBS. The maintenance medium was changed every 48 h until the cells were utilised for experimentation (9 days from the initiation of differentiation).
In order to study the role of MNK2 in adipocyte differentiation, 3T3-L1 cells were used in a similar manner to that described in Example 1. […]

[5] = tested on: MNKs; test: eIF4E phosphorylation (P-eIF4E immunoblot) in 3T3-L1 cells as read-out of MNK activity; format: cell-based; conditions: immunoblot
Description: Similar data obtained in three replicate experiments.
The term “MNK inhibitor” as used herein is intended to refer to any compound that reduces the biological activity of MNK1 (including reducing the biological activity of one or both of splice variants MNK1 a and MNK1b) and/or MNK2 (including reducing the biological activity of one or both of splice variants MNK2a and MNK2b), including by reducing the amount of MNK1 and/or MNK2 expressed. For example, the MNK inhibitor may be a small organic molecule (also referred to as a “small molecule” herein), a peptide antagonist, an inhibitory antibody or fragment thereof, an interfering nucleotide molecule, an aptamer or other MNK inhibitor that inhibits the expression or biological activity as would be understood by those skilled in the art. The biological activity of MNK1 and MNK2 can be measured in a variety of ways, for example, by measuring phosphorylation of its substrate eIF4E to P-eIF4E using any suitable method known to those skilled in the art, for example, by performing an immunoblot or ELISA utilising a specific anti-P-eIF4E antibody, for example, the anti-phospho eIF4E (Ser209) antibody distributed by Merck Millipore, Catalogue No. 07-823 (Merck Millipore, Billerica, Mass., United States of America). […] Those skilled in the art will be aware of how to conduct suitable controls when measuring P-eIF4E levels. The MNK1 and/or MNK2 bioactivity can otherwise be measured using a cellular assay that can detect levels of MNK1 and/or MNK2 bioactivity. Antibodies that specifically detect phosphorylated MNK could also be used, for example, anti-P-MNK1 (Phospho-Mnk1 (Thr197/202) Antibody #2111; Cell Signaling Technology Inc, Danvers, Mass., United States of America). Additionally, those skilled in the art will appreciate that the MNK inhibitors should be safe for use for its intended purpose.
Tissues were harvested in RIPA lysis buffer containing 50 mM TrisHCl, pH 7.4, 150 mM NaCl, 1% Triton X-100, 0.1% sodium deoxycholate, 0.1% sodium dodecyl sulfate, 1 mM ethylenediaminetetraaacteic acid (EDTA), 50 mM β-glycerolphosphate, 0.5 mM NaVO3, 0.1% 2-mercaptoethanol and protease inhibitors (Roche). After lysis, insoluble material was removed by centrifugation at 12,000 g for 10 min at 4° C. Protein content was determined by the Bradford protein assay (Bio-Rad). Immunoblotting was performed as described in Liu et al. (2014). Blots were visualised using a LI-COR Odyssey® Quantitative Imaging System. Primary antibodies as indicated in Table 5 were from Cell Signaling Technologies, except for anti-P-eIF4E (Merck Millipore). Secondary antibodies were obtained from Thermo Fisher Scientific Inc. (Waltham, Mass., United States of America) and used at 1:20,000 dilution.
MNKs are the only kinases known to phosphorylate eIF4E, and accordingly, the phosphorylation of eIF4E (P-eIF4E) provides a direct read-out of MNK biological activity.
Since eIF4E is only phosphorylated by the MNKs, its phosphorylation status is a reliable read-out of intracellular MNK activity. […] MNK2 is the main MNK in 3T3-L1 cells and in adipose tissue (Moore et al., 2016). In additional studies, tests were conducted to assess the effect of the MNK-I2 inhibitor on the induction of differentiation markers in 3T3-L1 cells.

[6] = tested on: 3T3-L1 cells; test: Lipid accumulation in differentiating 3T3-L1 cells (Oil Red O / triglyceride); format: cell-based; conditions: 20 μM, 3T3-L1 cells differentiated 9 days
Method: as §1
Assessment of intracellular triglyceride levels was performed using Oil Red O staining as described by others (Smith et al., 1988). Briefly, on day 9 of differentiation of the 3T3-L1 cells were fixed in 10% formalin for 1 hour. […] For quantification, cells were washed extensively with water to remove unbound dye, and 1 ml isopropanol was added to the stained 6-well culture plate. After 5 min, the absorbance of the oil red extract at 510 nm was measured, with an increased absorbance indicative of an increased lipid level within the cells.
The amount of tissue-released triglyceride (TAG) was measured using a Triglyceride Quantification Kit (Abcam, ab65336).

[7] = tested on: 3T3L1 cells; test: Lipolysis assay (glycerol release) in differentiated 3T3-L1 cells; format: cell-based; conditions: cells differentiated in presence vs absence of compound
Method: 3T3L1 cells were differentiated as described above for 9 days. The lipolysis assay was performed according to the manufactures instructions (Abcam Lipolysis assay kit, ab185433, Abcam). Briefly, after differentiation cells were washed two times with lipolysis assay buffer. Lipolysis was stimulated using 100 nM isoproterenol for 3 h. The amount of glycerol released was measured using colorimetric intensity.

Chain of MNK2 (Q9HBH9 whole entry, species assumed): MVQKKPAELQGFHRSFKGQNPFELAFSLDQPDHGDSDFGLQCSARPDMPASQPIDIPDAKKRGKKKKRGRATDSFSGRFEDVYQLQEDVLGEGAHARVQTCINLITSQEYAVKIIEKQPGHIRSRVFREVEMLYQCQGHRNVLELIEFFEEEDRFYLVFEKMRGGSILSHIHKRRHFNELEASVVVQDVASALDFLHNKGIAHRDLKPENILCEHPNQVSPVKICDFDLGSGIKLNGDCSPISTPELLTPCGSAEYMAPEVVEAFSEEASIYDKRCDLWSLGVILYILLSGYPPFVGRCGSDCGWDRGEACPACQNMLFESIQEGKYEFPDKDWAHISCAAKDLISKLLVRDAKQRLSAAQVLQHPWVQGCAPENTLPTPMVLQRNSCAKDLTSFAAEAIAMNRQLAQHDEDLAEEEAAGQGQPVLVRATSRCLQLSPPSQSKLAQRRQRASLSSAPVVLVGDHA

In the case of c1cc(-c2cc(C3CCNCC3)[nH]n2)ccn1 [ETP 45835 dihydrochloride, 4-[5-(4-Piperidinyl)-1H-pyrazol-3-yl]pyridine dihydrochloride], the pIC50 [1] is given as 6.19 and the pIC50 [2] is given as 6.24.
In the case of Nc1ncnc2[nH]nc(Nc3ccc(F)cc3)c12 [CGP57380, N3-(4-Fluorophenyl)-1H-pyrazolo-[3,4-d]pyrimidine-3,4-diamine], the “inhibition of other protein kinases” value [3] is listed as “inhibit other protein kinases in addition to the MNKs”, the “induction of adipogenic genes (PPARγ, C/EBPα, SREBP1c, GLUT4, CD36 mRNA)” value [4] is listed as “substantially blocked the induction of all of these genes; also recorded: impairs the induction of key transcription factors; also recorded: inhibits the expression of the glucose and lipid transporters GLUT4 and CD36; also recorded: inhibited expression of a number of genes required for adipocyte differentiation” and the “inhibition of P-eIF4E / MNK activity” value [5] is listed as “almost completely blocking MNK activity”. The “accumulation of lipid (Oil Red O)” value [6] was “inhibited the accumulation of lipid; also recorded: markedly inhibited” and the “glycerol released in lipolysis assay” value [7] was “less glycerol was released”.
